One experiment concerns the target T1, human SCD1 (Homo sapiens, UniProt O00767).
T1 construct: expressed in transfected cells; host or cells: yeast strain with the OLE1 gene deleted, carrying a plasmid (grown in SD-Ura)
T1 sequence (O00767 1-359): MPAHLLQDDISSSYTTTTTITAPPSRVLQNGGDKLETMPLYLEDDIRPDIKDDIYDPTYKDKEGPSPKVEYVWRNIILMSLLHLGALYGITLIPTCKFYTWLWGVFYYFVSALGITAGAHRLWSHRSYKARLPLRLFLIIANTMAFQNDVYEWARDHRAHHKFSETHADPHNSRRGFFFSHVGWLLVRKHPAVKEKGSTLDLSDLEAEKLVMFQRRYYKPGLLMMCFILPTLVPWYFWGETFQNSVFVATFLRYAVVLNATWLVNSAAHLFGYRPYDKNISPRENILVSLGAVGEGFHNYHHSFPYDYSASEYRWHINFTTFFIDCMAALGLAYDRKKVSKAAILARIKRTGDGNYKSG
Kind of experiment: Yeast growth assay, strain expressing human SCD1 as the sole desaturase (reduced growth as surrogate for SCD inhibition). In kind it is cell-based. Conditions: growth (OD600) after 40 h at 30° C.

A further experiment addresses T2, human SCD5 (Homo sapiens, UniProt Q86SK9).
T2 construct: expressed in transfected cells; host or cells: yeast strain with the OLE1 gene deleted, carrying a plasmid (grown in SD-Ura)
T2 sequence (Q86SK9 1-330): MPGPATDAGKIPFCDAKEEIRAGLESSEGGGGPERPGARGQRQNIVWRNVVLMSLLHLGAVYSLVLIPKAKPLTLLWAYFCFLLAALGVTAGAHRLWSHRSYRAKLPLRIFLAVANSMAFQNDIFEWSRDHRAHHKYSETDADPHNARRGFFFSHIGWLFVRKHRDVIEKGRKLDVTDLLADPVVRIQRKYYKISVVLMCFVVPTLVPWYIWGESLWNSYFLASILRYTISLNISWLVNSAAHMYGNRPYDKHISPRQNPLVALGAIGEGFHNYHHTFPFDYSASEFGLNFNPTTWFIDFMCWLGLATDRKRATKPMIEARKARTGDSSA
Kind of experiment: Yeast growth assay, strain expressing human SCD5 as the sole desaturase (reduced growth as surrogate for SCD inhibition). In kind it is cell-based. Conditions: growth (OD600) after 40 h at 30° C.

SMILES strings stand for the structures.

From patent publication US12180221B2, “Compounds and uses thereof” (JANSSEN PHARMACEUTICA NV, priority 2018, dated 2024) come the findings set out here.

The IC50 is the point on the concentration scale where inhibition reaches its midpoint. Read a low IC50 as greater potency in that assay.

Turning to `CC1(C)CN(C(=O)c2cccc(Cc3ccc(F)cc3)n2)CCO1` [Compound 339], the IC50 on human SCD1 is > 45 µM; at human SCD5, 17.7 µM.
Regarding `CN1N=C(C(=O)Nc2ncc(Cc3cccc(F)c3)s2)CCC1=O` [Compound 221, N-(5-(3-fluorobenzyl)thiazol-2-yl)-1-methyl-6-oxo-1,4,5,6-tetrahydropyridazine-3-carboxamide], the IC50 at human SCD1 and at human SCD5 was > 45 µM each time.
Take `O=C(Nc1ccc(Cc2cccc(F)c2)cn1)c1cnc2[nH]c(=O)oc2c1` [Compound 463]: the IC50 against human SCD1 and at human SCD5 was > 45 µM in each case.
As to `O=C(Nc1ccc(Cc2cccc(F)c2)cn1)c1cc[nH]c(=O)n1` [Compound 425], the IC50 against human SCD1 and against human SCD5 was > 45 µM in each case.
Consider `Cn1cc(C(=O)Nc2ccc(COc3cccc(Cl)c3)cn2)ccc1=O` [Compound 263], for which the IC50 against human SCD5 stood at 0.17 µM.
Regarding `Cn1cc(C(=O)Nc2ccc(Cc3ccc(F)c(F)c3)cn2)ncc1=O` [Compound 673], the IC50 against human SCD1 was determined as 3.1 µM; against human SCD5, 0.36 µM.
On the same counts, the results for `Cc1ccc(Cc2ccc(C(=O)Nc3ccc(=O)n(C)n3)nc2)cc1C` [Compound 312] are 1.82 µM and 0.03 µM.
As to `CN1N=C(c2nc3cc(Cc4cccc(Cl)c4)cnc3[nH]2)CCC1=O` [Compound 255], on human SCD1, the IC50 was > 45 µM.
